In patent US11103509B2 (University of Kentucky Research Foundation, priority 2018, dated 2021):
Entries after “also recorded” stand apart in the source; their conditions may differ. Where two headings read alike, the source gives them in different places.

Columns and labels:
human mPGES-1 [1] = target: T1, human mPGES-1 (Homo sapiens, UniProt O14684); experiment: in vitro inhibitory activity against human mPGES-1 (PGE2 enzyme immunoassay); assay type: biochemical
T1 construct: made in house
T1 sequence (O14684 1-152): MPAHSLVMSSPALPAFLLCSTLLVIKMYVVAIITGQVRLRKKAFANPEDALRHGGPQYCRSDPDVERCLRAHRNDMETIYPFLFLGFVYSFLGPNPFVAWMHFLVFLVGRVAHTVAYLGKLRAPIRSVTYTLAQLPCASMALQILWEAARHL
Protocol: The above computational predictions were followed by in vitro activity assays for their actual inhibitory activity against human mPGES-1 using an ELISA assay previously-described.^16-17, 19 Specifically, a total of 18 FDA-approved drugs were assayed for their inhibitory activity against human mPGES-1.
The protocol for the protein preparation and in vitro activity assays were the same as described previously.^69-72 The enzyme activity assays were performed on ice in 1.5 ml microfuge tubes by using the expressed human mPGES-1. The reaction mixture contained: 0.2 M Na2HPO4/NaH2PO4, pH 7.2, 10 μL; 0.1 M GSH, 2.5 μL; diluted microsomal enzyme (80 μg/mL), 1 μL; PGH2 (0.31 mM in DMF), 5 μL; 1 μL inhibitor; and H2O in a final reaction volume of 100 μL. PGH2 was stored in dry ice and used to initiate the reaction. Compounds were incubated with the enzyme for 15 min at room temperature before the addition of cold PGH2 (1 μM final) to initiate the enzyme reaction. After 30 s, 10 μL of SnCl2 (40 mg/mL) in ethanol was added to stop the reaction. The non-enzymatic conversion of PGH2 to PGE2 was performed in the same buffer devoid of enzyme. The reaction mixture was placed on ice until PGE2 production was determined by the PGE2 enzyme immunoassay as described earlier. IC50 values of the inhibitors were calculated by using the GraphPad Prism 6.0.

pain in cancer patients [2] = experiment: clinical data mining: patients complaining about pain in lapatinib clinical trials; assay type: in vivo, human; set-up: Pain decreased compared to control group (%): Arthralgia / Pain decreased compared to control group (%): Musculoskeletal Pain / Pain decreased compared to control group (%): Headache / Pain decreased compared to control group (%): Oral pain / Pain decreased compared to control group (%): Pain-overall / Pain decreased compared to control group (%): Myalgia: concentration or dose not given beside the values
Protocol: The “other adverse events” part of the clinical report was analyzed.
In particular, all of the data from clinical trials NCT00424255, NCT00390455, NCT00371566, and NCT00374322 was collected together as a larger dataset.
(§1) All p values on the differences between groups were calculated using χ^2 tests on GraphPad Prism 6.0. Confidence interval was set at 95%. […] Barnard's tests or Fisher's tests were not chosen due to the large sample size and Yate's correction on χ^2 tests was not adopted due to the same reason.

pain in cancer patients [3] = experiment: clinical data mining: pain complaints in phase III clinical trial NCT00490139; assay type: in vivo, human; conditions: compared to patients given only trastuzumab (FIG. 5)
Protocol: as §1

human mPGES-1 [4] = target: T1, human mPGES-1; experiment: in vitro inhibitory activity against human mPGES-1 (PGE2 enzyme immunoassay); assay type: biochemical; conditions: lapatinib constant 1 μM, GSH at different concentrations (FIG. 3D)
[5] = human, read-out: Cmax (μM) in plasma, cited from earlier work
pain in cancer patients [6] = conditions: cited from earlier work
[7] = test system: pain symptoms in inflammatory breast cancer patients; conditions: lapatinib monotherapy, n=17, not statistically significant (p>0.05); cited from earlier work
pain in cancer patients [8] = conditions: NCT00490139 Group III: oral lapatinib 1500 mg daily, 52 weeks; cited from earlier work
[9] = all individual pains added, four trials
[10] = combined NCT00374322, NCT00390455
[11] = combined NCT00374322, NCT00390455, NCT00424255, NCT00371566
[12] = combined NCT00390455, NCT00424255
[13] = combined NCT00424255, NCT00371566
[14] = combined nine trials (footnote e)
[15] = NCT00371566, with drug total 69
[16] = NCT00374322, with drug total 1573
[17] = NCT00390455, with drug total 141
[18] = NCT00424255, with drug total 349

CS(=O)(=O)CCNCc1ccc(-c2ccc3ncnc(Nc4ccc(OCc5cccc(F)c5)c(Cl)c4)c3c2)o1 [lapatinib]
IC50 (human mPGES-1 [1]): 800 nM
# of patients complaining pain/# of patients given lapatinib, Counts: Pain-overall (pain in cancer patients [2]; [9]): 304/4754
patients complaining pain, Percentage (%): Pain-overall (pain in cancer patients [2]; [9]): 6.39%
Pain decreased compared to control group (%): Pain-overall (pain in cancer patients [2]; all individual pains added, four trials, control drugs or placebo): 28.00%
# of patients complaining pain/# of patients given lapatinib, Counts: Arthralgia (pain in cancer patients [2]; [10]): 72/1714
patients complaining pain, Percentage (%): Arthralgia (pain in cancer patients [2]; [10]): 4.20%
# of patients complaining pain/# of patients given lapatinib, Counts: Headache (pain in cancer patients [2]; [11]): 182/2132
patients complaining pain, Percentage(%): Headache (pain in cancer patients [2]; [11]): 8.54%
Pain decreased compared to control group (%): Headache (pain in cancer patients [2]; combined NCT00374322, NCT00390455, NCT00424255, NCT00371566, control drugs or placebo): 23.02%
Pain decreased compared to control group (%): Arthralgia (pain in cancer patients [2]; combined NCT00374322, NCT00390455, control drugs or placebo): 39.60%
# of patients complaining pain/# of patients given lapatinib, Counts: Musculoskeletal Pain (pain in cancer patients [2]; [12]): 15/490
patients complaining pain, Percentage (%): Musculoskeletal Pain (pain in cancer patients [2]; [12]): 3.06%
Pain decreased compared to control group (%): Musculoskeletal Pain (pain in cancer patients [2]; combined NCT00390455, NCT00424255, control drugs or placebo): 39.67%
# of patients complaining pain/# of patients given lapatinib, Counts: Oral pain (pain in cancer patients [2]; [13]): 35/418
patients complaining pain, Percentage (%): Oral pain (pain in cancer patients [2]; [13]): 8.37%
Pain decreased compared to control group (%): Oral pain (pain in cancer patients [2]; combined NCT00424255, NCT00371566, control drugs or placebo): 18.03%
# of patients complaining pain/# of patients given lapatinib, Counts: Myalgia (pain in cancer patients [2]; [14]): 321/3314
patients complaining pain, Percentage (%): Myalgia (pain in cancer patients [2]; [14]): 9.69%
Pain decreased compared to control group (%): Myalgia (pain in cancer patients [2]; combined nine trials (footnote e), control drugs or placebo): 14.02%
overall pain relief (in words) (pain in cancer patients [2]; pain-overall category, combined trials, p<0.05): significantly relieve pain in cancer patients
pain relief in NCT00490139 (in words) (pain in cancer patients [3]): significantly relive all types of pain (p<0.05), except for the back pain
competition with co-factor GSH (human mPGES-1 [4]): competes with co-factor GSH; also recorded: GSH-competitive inhibitor
Cmax ([5]; 1250 mg orally once daily, trial NCT00477464): 6.06 µM
Cmax ([5]; 1500 mg (6 pills at 250 mg) once oral daily, trials NCT00486954 and NCT01138046, average Cmax): 8.6 µM
Cmax ([5]; dose 10 mg, GW572016 ditosylate monohydrate oral suspension (Bence et al.)): 0.019 µM
Cmax ([5]; dose 25 mg, GW572016 ditosylate monohydrate oral suspension (Bence et al.)): 0.04 µM
Cmax ([5]; dose 50 mg, GW572016 ditosylate monohydrate oral suspension (Bence et al.)): 0.124 µM
Cmax ([5]; dose 100 mg, GW572016 ditosylate monohydrate oral suspension (Bence et al.)): 0.213 µM
Cmax ([5]; dose 175 mg, GW572016 ditosylate monohydrate oral suspension (Bence et al.)): 0.38 µM
Cmax ([5]; dose 250 mg, GW572016 ditosylate monohydrate oral suspension (Bence et al.)): 0.546 µM
Cmax ([5]; dose 500 mg, tablets, daily oral, trial EGF10004): 1.76 µM
Cmax ([5]; dose 650 mg, tablets, daily oral, trial EGF10004): 2.24 µM
Cmax ([5]; dose 1000 mg, tablets, daily oral, trial EGF10004): 3.18 µM
Headache, With drug pains (pain in cancer patients [6]; [15]): 3
Oral pain, With drug pains (pain in cancer patients [6]; [15]): 10
patients reporting arthralgia / patients in lapatinib group (pain in cancer patients [6]; NCT00374322, vs placebo 113/1574): 69/1573
patients reporting headache / patients in lapatinib group (pain in cancer patients [6]; NCT00374322, vs placebo 185/1574): 140/1573
Arthralgia, With drug pains (pain in cancer patients [6]; [16]): 69
Headache, With drug pains (pain in cancer patients [6]; [16]): 140
Arthralgia, With drug pains (pain in cancer patients [6]; [17]): 3
Back Pain, With drug pains (pain in cancer patients [6]; [17]): 5
Bone Pain, With drug pains (pain in cancer patients [6]; [17]): 3
Headache, With drug pains (pain in cancer patients [6]; [17]): 19
Musculoskeletal Pain, With drug pains (pain in cancer patients [6]; [17]): 0
Pain In Extremity, With drug pains (pain in cancer patients [6]; [17]): 1
Pain-chest/thorax, With drug pains (pain in cancer patients [6]; [17]): 1
Headache, With drug pains (pain in cancer patients [6]; [18]): 20
Musculoskeletal Pain, With drug pains (pain in cancer patients [6]; [18]): 15
Oral pain, With drug pains (pain in cancer patients [6]; [18]): 25
relief from symptoms including pain (in words) [7]: provide relief from symptoms, including pain, in the short term
Arthralgia, Patient counts (pain in cancer patients [8]): 290/2057
Arthralgia, patient percentage (pain in cancer patients [8]): (14.10%)
Back Pain, patient percentage (pain in cancer patients [8]): (5.79%)
Bone Pain, Patient counts (pain in cancer patients [8]): 91/2057
Bone Pain, patient percentage (pain in cancer patients [8]): (4.42%)
Headache, Patient counts (pain in cancer patients [8]): 161/2057
Headache, patient percentage (pain in cancer patients [8]): (7.83%)
Musculoskeletal pain, Patient counts (pain in cancer patients [8]): 70/2057
Musculoskeletal pain, patient percentage (pain in cancer patients [8]): (3.40%)
Pain in Extremity, Patient counts (pain in cancer patients [8]): 99/2057
Pain in Extremity, patient percentage (pain in cancer patients [8]): (4.81%)
